Reference: ChEMBL document CHEMBL1149398, “Pyrrolizidine esters and amides as 5-HT4 receptor agonists and antagonists” (J Med Chem, 2006)
pEC50, pIC50, pKi: −log10 of the molar value.

How the values were obtained:
[1] = molecular target: T1, 5-hydroxytryptamine receptor 4 (Rattus norvegicus, UniProt Q62758); assay: Antagonism at 5HT4 receptor in rat tunica muscularis mucosa; assay type: functional, tissue-based; details: read-out: pA2 (converted)
[2] = molecular target: Beta-1 adrenergic receptor (Homo sapiens, UniProt P08588); assay: Binding affinity to adrenergic beta-1 receptor
[3] = molecular target: Beta-2 adrenergic receptor (Homo sapiens, UniProt P07550); assay: Binding affinity to adrenergic beta-2 receptor
D(1A) dopamine receptor = D(1A) dopamine receptor (Homo sapiens, UniProt P21728); assay: Binding affinity to dopamine receptor D1
[4] = molecular target: T2, Serotonin 3 (5-HT3) receptor (Rattus norvegicus, UniProt P35563+Q9JJ16); assay: Displacement of [3H]GR65630 from 5HT3 receptor in brain cortex from Wistar rat; assay type: tissue-based
T2 sequence (P35563 whole entry): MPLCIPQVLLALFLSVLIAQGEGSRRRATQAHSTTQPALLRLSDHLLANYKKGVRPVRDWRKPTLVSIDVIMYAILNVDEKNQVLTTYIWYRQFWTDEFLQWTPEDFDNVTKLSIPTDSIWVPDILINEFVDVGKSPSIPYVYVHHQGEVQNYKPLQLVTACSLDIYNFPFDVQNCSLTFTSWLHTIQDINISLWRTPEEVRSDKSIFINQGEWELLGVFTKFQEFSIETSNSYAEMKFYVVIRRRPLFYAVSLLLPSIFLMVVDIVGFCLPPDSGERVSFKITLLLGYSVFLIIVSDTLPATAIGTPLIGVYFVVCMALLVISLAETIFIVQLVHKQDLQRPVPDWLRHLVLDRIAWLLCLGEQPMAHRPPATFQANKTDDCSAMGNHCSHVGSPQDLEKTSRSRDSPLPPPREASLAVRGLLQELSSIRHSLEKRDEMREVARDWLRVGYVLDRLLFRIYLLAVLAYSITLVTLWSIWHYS
T2 sequence (Q9JJ16 whole entry): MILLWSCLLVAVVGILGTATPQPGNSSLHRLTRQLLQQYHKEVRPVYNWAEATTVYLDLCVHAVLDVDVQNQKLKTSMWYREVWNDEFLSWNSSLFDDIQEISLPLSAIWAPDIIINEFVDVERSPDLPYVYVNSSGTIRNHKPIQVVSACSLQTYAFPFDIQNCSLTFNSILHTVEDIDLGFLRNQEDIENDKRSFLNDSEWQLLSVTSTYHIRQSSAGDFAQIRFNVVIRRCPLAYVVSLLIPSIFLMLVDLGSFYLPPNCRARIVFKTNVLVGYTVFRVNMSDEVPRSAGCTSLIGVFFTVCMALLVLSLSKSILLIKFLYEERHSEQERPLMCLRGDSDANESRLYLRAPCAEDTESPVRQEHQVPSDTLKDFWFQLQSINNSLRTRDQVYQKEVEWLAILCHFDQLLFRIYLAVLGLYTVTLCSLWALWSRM

[5] = molecular target: T1, 5-hydroxytryptamine receptor 4; assay: Agonism at 5HT4 receptor in rat tunica muscularis mucosa; assay type: functional
[6] = molecular target: T3, Serotonin 3 receptor (5HT3) (Mus musculus) (UniProt Q9JHJ5+P23979); assay: Antagonism at 5HT3 receptor in mice by von Bezold-Jarisch reflex inhibition at 10 mg/kg, ip; assay type: functional, organism-based; design: dose 10 mg/kg
Salmonella typhi [7] = assay: Mutagenic activity in a GLP study using Salmonella Typhimurium TA1538 in presence of S9 fraction at 7.2-3600 ug/plate; assay type: toxicity, organism-based; details: salmonella enterica subsp. enterica […]
[8] = molecular target: T3, Serotonin 3 receptor (5HT3) (Mus musculus); assay: Antagonism at 5HT3 receptor in mice by von Bezold-Jarisch reflex inhibition at 3 mg/kg, ip; assay type: functional, organism-based; design: dose 3 mg/kg
Salmonella typhi [9] = assay: Mutagenic activity in a GLP study using Salmonella Typhimurium TA1535 in presence of S9 fraction at 7.2-3600 ug/plate; assay type: toxicity, organism-based; details: salmonella enterica subsp. enterica […]
Salmonella typhi [10] = assay: Mutagenic activity in a GLP study using Salmonella Typhimurium TA100 in presence of S9 fraction at 7.2-3600 ug/plate; assay type: toxicity, organism-based; details: salmonella enterica subsp. enterica […]
Salmonella typhi [11] = assay: Mutagenic activity in a GLP study using Salmonella Typhimurium TA98 in presence of S9 fraction at 7.2-3600 ug/plate; assay type: toxicity, organism-based; details: salmonella enterica subsp. enterica […]
Canis familiaris [12] = assay: Effect on solid gastric emptying in iv dosed dog; assay type: functional; details: Canis lupus familiaris, Stomach
[13] = molecular target: T3, Serotonin 3 receptor (5HT3) (Mus musculus); assay: Antagonism at 5HT3 receptor in mice by von Bezold-Jarisch reflex inhibition at 1 mg/kg, ip; assay type: functional, organism-based; design: dose 1 mg/kg
Canis familiaris [14] = assay: Contractile response of the antrum in iv dosed fasted dog; assay type: functional; details: Canis lupus familiaris
Salmonella typhi [15] = assay: Mutagenic activity in a GLP study using Salmonella Typhimurium TA97 in presence of S9 fraction at 7.2-3600 ug/plate; assay type: toxicity, organism-based; details: salmonella enterica subsp. enterica […]

T1 sequence (Q62758 whole entry): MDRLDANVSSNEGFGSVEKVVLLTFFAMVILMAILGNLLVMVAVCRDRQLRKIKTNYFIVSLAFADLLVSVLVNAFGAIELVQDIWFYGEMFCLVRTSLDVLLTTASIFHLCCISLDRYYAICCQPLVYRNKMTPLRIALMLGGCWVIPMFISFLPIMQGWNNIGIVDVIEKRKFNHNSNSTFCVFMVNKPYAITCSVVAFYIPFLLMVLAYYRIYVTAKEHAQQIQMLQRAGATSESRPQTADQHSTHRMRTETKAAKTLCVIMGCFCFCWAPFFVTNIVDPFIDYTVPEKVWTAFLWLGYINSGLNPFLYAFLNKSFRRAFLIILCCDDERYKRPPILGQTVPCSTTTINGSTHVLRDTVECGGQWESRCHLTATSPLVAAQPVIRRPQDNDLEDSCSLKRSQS
Sequence of Beta-2 adrenergic receptor (P07550 whole entry): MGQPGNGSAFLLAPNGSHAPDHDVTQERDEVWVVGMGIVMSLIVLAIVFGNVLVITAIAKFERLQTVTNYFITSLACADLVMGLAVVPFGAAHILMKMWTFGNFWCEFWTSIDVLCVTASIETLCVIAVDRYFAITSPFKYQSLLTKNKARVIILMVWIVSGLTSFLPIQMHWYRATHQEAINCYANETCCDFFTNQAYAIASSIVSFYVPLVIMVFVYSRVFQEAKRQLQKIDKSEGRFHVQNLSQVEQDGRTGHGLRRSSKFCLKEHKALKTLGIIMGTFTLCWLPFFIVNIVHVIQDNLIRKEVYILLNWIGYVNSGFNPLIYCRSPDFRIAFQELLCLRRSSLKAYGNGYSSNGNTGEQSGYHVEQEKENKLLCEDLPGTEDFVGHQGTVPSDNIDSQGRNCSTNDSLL
T3 sequence (P23979 whole entry, looked up): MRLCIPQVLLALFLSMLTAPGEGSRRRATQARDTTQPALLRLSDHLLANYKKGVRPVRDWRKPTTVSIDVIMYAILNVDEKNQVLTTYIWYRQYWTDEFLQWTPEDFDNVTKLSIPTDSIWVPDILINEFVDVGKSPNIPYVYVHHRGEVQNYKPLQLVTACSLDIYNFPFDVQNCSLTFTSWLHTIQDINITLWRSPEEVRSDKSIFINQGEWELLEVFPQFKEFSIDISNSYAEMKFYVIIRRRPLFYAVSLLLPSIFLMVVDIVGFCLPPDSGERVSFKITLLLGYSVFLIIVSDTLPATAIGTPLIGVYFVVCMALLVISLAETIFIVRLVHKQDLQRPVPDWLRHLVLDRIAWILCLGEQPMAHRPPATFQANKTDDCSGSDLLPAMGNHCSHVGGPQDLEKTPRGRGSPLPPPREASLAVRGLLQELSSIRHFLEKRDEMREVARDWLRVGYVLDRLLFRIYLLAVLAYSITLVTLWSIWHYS
T3 sequence (Q9JHJ5 whole entry, looked up): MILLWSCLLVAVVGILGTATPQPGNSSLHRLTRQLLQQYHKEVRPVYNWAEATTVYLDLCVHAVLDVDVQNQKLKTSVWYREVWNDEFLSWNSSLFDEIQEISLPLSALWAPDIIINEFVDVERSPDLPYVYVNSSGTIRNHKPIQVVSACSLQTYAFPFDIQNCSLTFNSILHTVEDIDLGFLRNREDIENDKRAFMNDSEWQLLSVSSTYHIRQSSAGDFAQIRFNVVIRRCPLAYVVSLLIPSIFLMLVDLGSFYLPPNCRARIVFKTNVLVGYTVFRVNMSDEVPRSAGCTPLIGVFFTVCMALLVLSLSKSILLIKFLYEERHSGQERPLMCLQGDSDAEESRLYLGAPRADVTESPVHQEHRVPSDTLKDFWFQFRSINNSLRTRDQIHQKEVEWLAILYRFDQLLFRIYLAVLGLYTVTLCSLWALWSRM
Sequence of Beta-1 adrenergic receptor (P08588 whole entry): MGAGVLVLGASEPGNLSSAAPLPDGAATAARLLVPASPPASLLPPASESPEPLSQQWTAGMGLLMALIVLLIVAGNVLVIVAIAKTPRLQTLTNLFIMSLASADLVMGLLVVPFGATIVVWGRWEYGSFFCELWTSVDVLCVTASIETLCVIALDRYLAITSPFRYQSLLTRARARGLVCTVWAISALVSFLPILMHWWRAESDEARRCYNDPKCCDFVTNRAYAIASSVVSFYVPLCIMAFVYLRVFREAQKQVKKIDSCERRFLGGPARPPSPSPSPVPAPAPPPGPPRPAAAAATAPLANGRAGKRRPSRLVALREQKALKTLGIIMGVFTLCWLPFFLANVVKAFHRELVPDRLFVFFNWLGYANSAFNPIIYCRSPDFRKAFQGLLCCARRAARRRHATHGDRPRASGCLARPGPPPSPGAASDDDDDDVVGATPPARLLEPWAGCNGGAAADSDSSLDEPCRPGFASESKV
Sequence of D(1A) dopamine receptor (P21728 whole entry): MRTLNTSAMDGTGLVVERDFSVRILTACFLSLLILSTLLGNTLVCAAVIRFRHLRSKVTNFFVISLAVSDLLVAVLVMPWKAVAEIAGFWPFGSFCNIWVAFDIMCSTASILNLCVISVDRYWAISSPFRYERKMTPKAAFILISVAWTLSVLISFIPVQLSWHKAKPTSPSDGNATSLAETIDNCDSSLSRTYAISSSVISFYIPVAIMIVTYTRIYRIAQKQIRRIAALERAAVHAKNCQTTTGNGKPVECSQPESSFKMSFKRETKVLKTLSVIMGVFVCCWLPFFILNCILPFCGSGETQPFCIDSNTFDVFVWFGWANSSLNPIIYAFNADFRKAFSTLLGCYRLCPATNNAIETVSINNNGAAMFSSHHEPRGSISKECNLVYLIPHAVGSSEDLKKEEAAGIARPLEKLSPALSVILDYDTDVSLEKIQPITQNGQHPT

SMILES	Kb [1]	pIC50 [2]	pIC50 [3]	pIC50 (D(1A) dopamine receptor)	pKi [4]	pEC50 [5]	inhibition [6]	Activity (Salmonella typhi [7])	inhibition [8]	Activity (Salmonella typhi [9])	Activity (Salmonella typhi [10])	Activity (Salmonella typhi [11])	ED50 (Canis familiaris [12])	inhibition [13]	ED50 (Canis familiaris [14])	Activity (Salmonella typhi [15])
O=C(NC[C@@H]1CCN2CCC[C@@H]12)c1cc(Cl)cn2ccnc12	7.41 nM	< 5.00	< 5.00	< 5.00	6.59	< 5.00										
COc1cc(N)c(Cl)cc1C(=O)N[C@@H]1C2CC3CN(C2)CC31 (some centres undefined)		< 5.00	< 5.00	< 5.00	8.92											
O=C(OC[C@@H]1CCN2CCC[C@@H]12)c1[nH]nc2ccccc12 (single isomer, unassigned)	3.31 nM	< 5.00	< 5.00	< 5.00	6.87											
COc1cc(N)c(Cl)cc1C(=O)NC[C@@H]1CCN2CCC[C@@H]12		< 5.00	< 5.00	< 5.00		7.78	87%	Active	57%	Active	Active	Active	1 µg/kg	7%	10 µg/kg	Active
Cn1nc(C(=O)OC[C@@H]2CCN3CCC[C@@H]23)c2ccccc21 (single isomer, unassigned)	2.75 nM	< 5.00	< 5.00	< 5.00	7.70											
O=C(OC[C@@H]1CCN2CCC[C@@H]12)c1c[nH]c2ccccc12	1.17 nM	< 5.00	< 5.00	< 5.00	8.30											
